Measured values from ChEMBL document CHEMBL4304741, “Modification and Biological Evaluation of a Series of 1,5-Diaryl-1,2,4-triazole Compounds as Novel Agents against Pancreatic Cancer Metastasis through Targeting Myoferlin” (J Med Chem, 2019).
Active and inactive are the calls of the source. The calls are words filed in the database; no cut-off is given here.

Key:
[1] = system: PANC-1; assay: Antimigratory activity against human PANC1 cells measured after 18 hrs in presence of mitomycin C using crystal violet staining by inverted microscopy-based transwell assay; format: functional, cell-based; conditions: PANC-1, 18 h
[2] = system: PANC-1; assay: Antiinvasive activity against human PANC1 cells measured after 18 hrs in presence of mitomycin C using crystal violet staining by inverted microscopy-based matrigel coated transwell assay; format: functional, cell-based; conditions: PANC-1, 18 h
[3] = molecular target: T1, Myoferlin (Homo sapiens, UniProt Q9NZM1); assay: Binding affinity to recombinant human GST-tagged MYOF C2 domain (3445 to 3912 residues) expressed in Escherichia coli BL21 (DE3) at 0.03125 to 0.5 uM by surface plasmon resonance analysis
[4] = molecular target: T1, Myoferlin; assay: Binding affinity to recombinant human GST-tagged MYOF C2 domain (3445 to 3912 residues) expressed in Escherichia coli BL21 (DE3) at 0.3125 to 10 uM by surface plasmon resonance analysis
[5] = system: PANC-1; assay: Antimetastatic activity against human PANC1 cells harboring luciferase reporter gene xenografted in Balb/c nude mouse assessed as mouse survival at 25 mg/kg/day, ip (reference value: 25%); format: functional; conditions: PANC-1, ip
[6] = system: PANC-1; assay: Antimetastatic activity against human PANC1 cells harboring luciferase reporter gene xenografted in Balb/c nude mouse at 25 mg/kg/day, ip measured every 10 days by bioluminescence imaging analysis; format: functional, organism-based
[7] = Toxicity in Balb/c nude mouse xenografted with PANC1 cells assessed as body weight loss at 25 mg/kg/day, ip; format: organism-based; conditions: in vivo
[8] = Toxicity in Balb/c nude mouse xenografted with PANC1 cells assessed as pathological changes in heart at 25 mg/kg/day, ip by H and E staining-based microscopic analysis; format: organism-based; conditions: in vivo
[9] = Toxicity in Balb/c nude mouse xenografted with PANC1 cells assessed as pathological changes in lung at 25 mg/kg/day, ip by H and E staining-based microscopic analysis; format: organism-based; conditions: in vivo
[10] = Toxicity in Balb/c nude mouse xenografted with PANC1 cells assessed as pathological changes in liver at 25 mg/kg/day, ip by H and E staining-based microscopic analysis; format: organism-based; conditions: in vivo
[11] = Toxicity in Balb/c nude mouse xenografted with PANC1 cells assessed as pathological changes in spleen at 25 mg/kg/day, ip by H and E staining-based microscopic analysis; format: organism-based; conditions: in vivo
[12] = Toxicity in Balb/c nude mouse xenografted with PANC1 cells assessed as pathological changes in kidney at 25 mg/kg/day, ip by H and E staining-based microscopic analysis; format: organism-based; conditions: in vivo
[13] = system: PANC-1; assay: Antimigratory activity against MYOF-knockout human PANC1 cells measured after 18 hrs in presence of mitomycin C using crystal violet staining by inverted microscopy-based transwell assay; format: functional, cell-based

T1 sequence (Q9NZM1 whole entry, the tested form may be a part): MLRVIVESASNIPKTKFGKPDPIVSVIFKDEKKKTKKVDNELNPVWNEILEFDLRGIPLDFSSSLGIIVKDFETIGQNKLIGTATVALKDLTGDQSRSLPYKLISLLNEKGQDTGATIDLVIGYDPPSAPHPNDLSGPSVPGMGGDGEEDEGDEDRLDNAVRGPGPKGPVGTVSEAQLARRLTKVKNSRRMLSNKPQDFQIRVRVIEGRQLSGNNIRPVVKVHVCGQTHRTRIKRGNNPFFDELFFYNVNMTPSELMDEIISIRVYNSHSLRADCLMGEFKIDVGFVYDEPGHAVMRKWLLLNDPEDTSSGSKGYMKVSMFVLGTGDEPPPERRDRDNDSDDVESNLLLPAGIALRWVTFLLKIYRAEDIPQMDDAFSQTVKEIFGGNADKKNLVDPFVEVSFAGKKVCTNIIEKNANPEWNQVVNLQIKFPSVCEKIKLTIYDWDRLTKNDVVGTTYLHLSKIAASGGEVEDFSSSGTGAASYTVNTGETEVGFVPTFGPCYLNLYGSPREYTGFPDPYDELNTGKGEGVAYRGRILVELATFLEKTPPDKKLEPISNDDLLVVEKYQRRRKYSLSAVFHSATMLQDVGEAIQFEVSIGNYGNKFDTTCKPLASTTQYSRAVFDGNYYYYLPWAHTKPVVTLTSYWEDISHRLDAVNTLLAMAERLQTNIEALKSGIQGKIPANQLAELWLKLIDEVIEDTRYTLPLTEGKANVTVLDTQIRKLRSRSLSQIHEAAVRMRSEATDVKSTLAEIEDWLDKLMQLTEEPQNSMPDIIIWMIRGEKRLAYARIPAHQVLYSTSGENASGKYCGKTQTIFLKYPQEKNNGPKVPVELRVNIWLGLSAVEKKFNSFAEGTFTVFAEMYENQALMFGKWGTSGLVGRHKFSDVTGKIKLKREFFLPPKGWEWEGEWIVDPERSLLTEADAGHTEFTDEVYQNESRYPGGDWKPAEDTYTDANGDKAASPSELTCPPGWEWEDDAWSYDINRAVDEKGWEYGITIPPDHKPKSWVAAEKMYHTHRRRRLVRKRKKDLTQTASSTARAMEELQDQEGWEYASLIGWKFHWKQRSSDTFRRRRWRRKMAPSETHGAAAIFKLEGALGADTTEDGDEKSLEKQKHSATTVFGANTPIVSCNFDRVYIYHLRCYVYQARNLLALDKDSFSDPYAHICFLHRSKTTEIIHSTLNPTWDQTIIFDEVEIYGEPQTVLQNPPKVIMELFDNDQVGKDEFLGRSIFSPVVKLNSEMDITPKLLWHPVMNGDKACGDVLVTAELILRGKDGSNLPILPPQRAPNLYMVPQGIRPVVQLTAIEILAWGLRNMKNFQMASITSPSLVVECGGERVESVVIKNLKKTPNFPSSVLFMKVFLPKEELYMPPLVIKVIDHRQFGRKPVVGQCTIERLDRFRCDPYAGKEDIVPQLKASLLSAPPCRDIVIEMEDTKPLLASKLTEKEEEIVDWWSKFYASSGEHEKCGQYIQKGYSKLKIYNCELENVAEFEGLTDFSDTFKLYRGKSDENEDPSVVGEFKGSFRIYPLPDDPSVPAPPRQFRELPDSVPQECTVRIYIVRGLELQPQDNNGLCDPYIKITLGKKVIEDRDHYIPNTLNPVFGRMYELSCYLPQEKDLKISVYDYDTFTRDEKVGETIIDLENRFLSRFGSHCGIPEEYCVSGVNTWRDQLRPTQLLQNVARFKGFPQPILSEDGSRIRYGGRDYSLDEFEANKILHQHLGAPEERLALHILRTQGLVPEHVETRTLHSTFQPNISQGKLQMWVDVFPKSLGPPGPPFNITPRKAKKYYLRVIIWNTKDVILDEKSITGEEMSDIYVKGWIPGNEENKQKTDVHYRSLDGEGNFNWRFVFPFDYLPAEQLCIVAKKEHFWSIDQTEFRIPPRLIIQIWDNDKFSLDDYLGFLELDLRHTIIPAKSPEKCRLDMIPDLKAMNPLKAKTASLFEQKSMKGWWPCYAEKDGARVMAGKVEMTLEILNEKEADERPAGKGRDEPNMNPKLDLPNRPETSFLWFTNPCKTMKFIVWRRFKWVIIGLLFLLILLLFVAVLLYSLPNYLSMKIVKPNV

IC50 [1] [µM] | Structure (SMILES) | other results
3.24 | COc1ccc(-c2nc(C)nn2-c2cccc(C(=O)NCCc3ccc(Br)cc3)c2)cc1 | IC50 [2]: 2960 nM
0.14 | CCc1nc(-c2ccc(OC)cc2)n(-c2cccc(C(=O)NCCCCc3ccccc3)c2)n1 | IC50 [2]: 180 nM; Activity [3]: Active
16.8 | CCOc1ccc(-c2nc(CC)nn2-c2cccc(C(=O)NCCCCc3ccccc3)c2)cc1 | –
0.31 | CCc1nc(-c2cnc(OC)cn2)n(-c2cccc(C(=O)NCCCCc3ccccc3)c2)n1 | –
> 20 | COc1ccccc1-c1nc(C)nn1-c1cccc(C(=O)NCCc2ccc(Cl)cc2)c1 | IC50 [2]: 27600 nM
0.83 | CCc1nc(-c2ccc(OC(F)F)cc2)n(-c2cccc(C(=O)NCCCCc3ccccc3)c2)n1 | –
> 20 | COc1ccc(-c2nc(C)nn2-c2cccc(C(=O)NCCc3ccncc3)c2)cc1 | –
0.39 | COc1ccccc1N1C(=O)CSC1c1cccc(C(=O)NCCc2ccc(Br)cc2)c1 (stereo not drawn) | IC50 [2]: 540 nM
9.34 | COc1ccc(-c2nc(C)nn2-c2cccc(C(=O)NCCOCc3ccccc3)c2)cc1 | –
> 20 | COc1ccc(-c2nc(C(C)C)nn2-c2cccc(C(=O)NCCCCc3ccccc3)c2)cc1 | –
0.81 | CCc1nc(-c2ccc(OC)nc2)n(-c2cccc(C(=O)NCCCCc3ccccc3)c2)n1 | –
0.63 | COc1ccc(-c2nc(C)nn2-c2cccc(C(=O)NCCCCc3ccccc3)c2)cc1 | Activity [4]: Active
> 20 | COc1ccc(-c2nc(C)nn2-c2cccc(C(=O)NCCc3cccs3)c2)cc1 | –
3.12 | COc1ccc(-c2nc(C)nn2-c2cccc(C(=O)NCCCOc3ccccc3)c2)cc1 | IC50 [2]: 3560 nM
0.42 | CCc1nc(-c2cccc(C(=O)NCCCCc3ccccc3)c2)n(-c2ccc(OC)cc2)n1 | –
7.68 | COc1ccc(-c2nc(C3CC3)nn2-c2cccc(C(=O)NCCCCc3ccccc3)c2)cc1 | –
1.62 | CCc1nc(-c2ccc(OC)cc2)n(-c2cncc(C(=O)NCCCCc3ccccc3)c2)n1 | –

IC50 [1] [µM] | Structure (SMILES) | other results
1.35 | CCc1nc(-c2cncc(C(=O)NCCCCc3ccccc3)c2)n(-c2ccc(OC)cc2)n1 | –
9.64 | CCc1nc(-c2cccc(C(=O)NCCCCc3ccccc3)n2)n(-c2ccc(OC)cc2)n1 | –
> 20 | COc1ccc(-c2ncnn2-c2cccc(C(=O)NCCCCc3ccccc3)c2)cc1 | –
16.8 | CCCCc1nc(-c2ccc(OC)cc2)n(-c2cccc(C(=O)NCCCCc3ccccc3)c2)n1 | –
> 20 | COc1ccc(-c2nc(C)nn2-c2cccc(C(=O)NCCCc3ccc(Br)cc3)c2)cc1 | –
0.12 | CCc1nc(-c2ccc(OC)cn2)n(-c2cccc(C(=O)NCCCCc3ccccc3)c2)n1 | IC50 [2]: 150 nM
1.68 | COc1ccc(-n2nc(C)nc2-c2cccc(C(=O)NCCCCc3ccccc3)c2)cc1 | –
– | CC(=O)O[C@@]12CO[C@@H]1C[C@H](O)[C@@]1(C)C(=O)[C@H](O)C3=C(C)[C@@H](OC(=O)[C@H](O)[C@@H](NC(=O)OC(C)(C)C)c4ccccc4)C[C@@](O)([C@@H](OC(=O)c4ccccc4)[C@H]21)C3(C)C | Activity [13]: Active
> 20 | COc1ccc(-c2nc(C)nn2-c2cccc(C(=O)NCCc3ccccn3)c2)cc1 | –
7.92 | COc1ccccc1-c1nc(C)nn1-c1cccc(C(=O)NCCc2ccc(Br)cc2)c1 | IC50 [2]: 10900 nM
> 20 | COc1ccc(-c2nc(C)nn2-c2cccc(C(=O)NCCCc3ccc(Cl)cc3)c2)cc1 | –
4.36 | COc1ccc(-c2nc(C)nn2-c2cccc(C(=O)NCCc3ccc(Cl)cc3)c2)cc1 | IC50 [2]: 9870 nM
> 20 | COc1ccc(-c2nc(C)nn2-c2cccc(C(=O)NCCCCCc3ccccc3)c2)cc1 | –
3.02 | COc1ccc(-c2nc(C)nn2-c2cccc(C(=O)NCCCCc3ccc(Br)cc3)c2)cc1 | –
0.22 | CCc1nc(-c2ccc(O)cc2)n(-c2cccc(C(=O)NCCCCc3ccccc3)c2)n1 | –
0.64 | CCc1nc(-c2ccc(OC(F)(F)F)cc2)n(-c2cccc(C(=O)NCCCCc3ccccc3)c2)n1 | –

Structure (SMILES) | IC50 [1] [µM] | other results
Nc1ccn([C@@H]2O[C@H](CO)[C@@H](O)C2(F)F)c(=O)n1 [GEMCITABINE] | 0.16 | IC50 [2]: 160 nM; survival at 25 mg/kg/day [5]: 60%; Activity [6]: Active; Activity [7]: Non-Toxic; Activity [8]: Non-Toxic; Activity [9]: Non-Toxic; Activity [10]: Non-Toxic; Activity [11]: Non-Toxic; Activity [12]: Non-Toxic
